System: Drosophila melanogater
Assay: Evaluation of VanDal system in biological control (in vivo functionality, survival of transgenic lines and progeny)
Settings: diet supplemented with a low dose vanillic acid
Excerpt: To engineer a dominant vanillic acid-repressible lethal system (VanDal system), a plasmid was constructed, in which the C-terminus of VanR was fused with the Herpes simplex virus transactivation domain VP16, generating a chimeric transcription factor (vanRTF) (as descried in Hagmann et al., 1997). The chimeric transcription factor VanR^TF was driven at high levels, in a ubiquitous pattern, using a baculovirus immediate early (iel) promoter separated by a baculovirus enhancer (hr5) (as described in Bossin et al., 2007). On the same plasmid, but facing in the opposite direction, VanO operator sequences were placed upstream of the P_hsp70^min promoter (as described in Amin et al., 1987), and the P_hsp70^min promoter drove the expression of toxin VP16. The vanillic acid-repressible lethal system resides in a single piggyback transposable element that also includes a positive selection marker gene, (Opie2-dsRed), to facilitate the identification of transgenic insects.
In this example, in vivo functionality of the VanDal system prepared according to the general procedure of Example 1 was evaluated in Drosophila melanogater, an insect model organism. […] To simulate a release into the wild, two crosses in the absence of vanillic acid were set up: 1) homozygous VanDal males mated separately to wildtype virgin females and 2) homozygous Vandal females mated separately to wildype males.

COc1cc(C(=O)O)ccc1O [vanillic acid, 4-hydroxy-3-methoxybenzoic acid]
survival of transgenic VanDal lines: only survive when fed a diet supplemented with a low dose vanillic acid

From patent US20140283155A1, “REPRESSIBLE LETHAL SYSTEM FOR REGULATING INSECT POPULATIONS” (California Institute of Technology, priority 2013, published 2014)
